Reference: the Kinase Knowledgebase extract (Sharma et al. 2016)

Each compound was assayed against MAPK14;MAPK11;MAPK12 (human) (UniProt Q16539) (assay: Inhibition of p38 Kinase Activity).

Row | SMILES | IC50 [nM]
1 | c1nc2ccc(Nc3nc(CCC4CCCCC4)nc(N4CCNCC4)n3)cc2s1 | < 10000
2 | CNCCN(C)c1nc(NCc2ccc(F)cc2F)nc(-n2cnc3ccccc32)n1 | < 10000
3 | c1nc2ccc(Nc3nc(N4CCNCC4)nc(N4CCC5CCCCC5C4)n3)cc2s1 (stereo not drawn) | < 10000
4 | CNC1CCN(c2cc(NCCOC(C)C)nc(-n3cnc4ccc(C)cc43)n2)C1 (stereo not drawn) | < 10000
5 | CC(=O)N1CCN(c2nc(Nc3ccc4ncsc4c3)nc(N(C)CC3CCC4CC3C4(C)C)n2)CC1 (stereo not drawn) | < 10000
6 | Cc1c(Nc2nc(Cl)nc(NCC(C)c3ccccc3)n2)ccc2ncsc12 (stereo not drawn) | < 10000
7 | CC(CNc1nc(Nc2ccc3ncsc3c2)nc(N(C)CCCN(C)C(=N)N)n1)c1ccccc1 (stereo not drawn) | < 10000
8 | CNc1nc(NCc2ccccc2OC)nc(Nc2ccc3ncsc3c2)n1 | < 10000
9 | CNCCN(C)c1nc(NCC(C)c2ccccc2)nc(Nc2cccc(Br)c2)n1 (stereo not drawn) | < 10000
10 | Clc1nc(Nc2ccc3ncsc3c2)nc(N2CCCC(c3ccccc3)C2)n1 (stereo not drawn) | < 10000
11 | CN(CCN(C)c1nc(NCc2ccc(F)cc2F)nc(-n2cnc3ccccc32)n1)C(=O)CCC(=O)O | < 10000
12 | CSc1nc2ccc(Nc3nc(NC[C@H](C)O)nc(N[C@@H](C)C4CCCCC4)n3)cc2s1 | < 10000
13 | CNC(=O)c1ccc(C)c(Oc2nc(N[C@@H]3CCNC3)nc(N(C)CC(C)(C)C)n2)c1 | < 30000
14 | COC(=O)CC(CNc1nc(Cl)nc(Nc2ccc3ncsc3c2)n1)c1ccc(Cl)cc1 (stereo not drawn) | < 10000
15 | Cc1ccc(C(N)=O)cc1Nc1nc(NCC23CC4CC(CC(C4)C2)C3)nc(N[C@@H]2CCNC2)n1 | < 1000
16 | Cc1ccc(C(N)=O)cc1Nc1nc(NCC23CC4CC(CC(C4)C2)C3)nc(NC2CCNC2)n1 (stereo not drawn) | < 1000
17 | CNCCN(C)c1nc(NC[C@@H]2CC[C@H]3C[C@@H]2C3(C)C)nc(Nc2ccc3ncsc3c2)n1 | < 10000
18 | CNc1nc(NCC(C)c2ccccc2)nc(Nc2ccc3ncsc3c2)n1 (stereo not drawn) | < 10000
19 | CONC(=O)c1ccc(C)c(Nc2nc(NCCCn3ccnc3)nc(N(C)CC(C)(C)C)n2)c1 | < 1000
20 | CCONC(=O)c1ccc(C)c(Nc2nc(N[C@H]3CCNC3)nc(N(C)CC(C)C)n2)c1 | < 1000
21 | Cc1ccc(C(=O)Nc2cccc(N(C)C)c2)cc1Nc1nc(N[C@H]2CCNC2)nc(N(C)CC(C)(C)C)n1 | < 1000
22 | CC(=O)Nc1ccc(C)c(Nc2nc(NCC(C)(C)C)nc(N[C@H]3CCNC3)n2)c1 | < 1000

Row | SMILES | IC50 [nM]
23 | Cc1ccc(C(N)=O)cc1Nc1nc(N[C@@H]2CCN(C(C)C(C)C)C2)nc(N(C)CC(C)(C)C)n1 (stereo partly drawn) | < 1000
24 | Cc1ccc(C(N)=O)cc1Nc1nc(N[C@H]2CCN(Cc3cccnc3)C2)nc(N(C)CC(C)C)n1 | < 1000
25 | CCNC(=O)c1ccc(C)c(Nc2nc(N[C@H]3CCNC3)nc(N(C)CC(C)(C)C)n2)c1 | < 1000
26 | Cc1ccc2c(c1)ncn2-c1nc(NCCOC(C)C)cc(N(C)C)n1 | < 10000
27 | CC1(C)C2CCC(CNc3nc(N)nc(Nc4ccc(S(=O)(=O)N(C=O)c5ncccn5)cc4)n3)C1C2 (stereo not drawn) | < 10000
28 | CCONC(=O)c1ccc(C)c(Nc2nc(N)nc(N(C)CC(C)(C)C)n2)c1 | < 1000
29 | CNCCN(C)c1nc(NC[C@@H](C)c2ccccc2)nc(-n2cnc3ccccc32)n1 | < 10000
30 | CONC(=O)c1ccc(C)c(Nc2nc(NCc3ccccn3)nc(N(C)CC(C)(C)C)n2)c1 | < 1000
31 | CCNC(=O)c1ccc(C)c(Nc2nc(N[C@@H]3CCN(C4=CC(=O)CC(C)(C)C4)C3)nc(N(C)CC(C)(C)C)n2)c1 | < 1000
32 | CNc1nc(Nc2cc(C(N)=O)ccc2C)nc(N[C@H]2CCNC2)n1 | < 1000
33 | Cc1ccc(-c2nn(C)c(=O)[nH]2)cc1Nc1nc(N(C)CC(C)(C)C)nc(N2CCCN(C)CC2)n1 | < 1000
34 | Cc1ccc(C(N)=O)cc1Nc1nc(NC2CCc3ccccc32)nc(N[C@@H]2CCNC2)n1 (stereo partly drawn) | < 1000
35 | Cc1ccc(C(N)=O)cc1Nc1nc(N[C@@H]2CCCC[C@H]2N)nc(N(C)CC(C)C)n1 | < 1000
36 | COc1ccc(CN2CCC(Nc3nc(Nc4cc(C(N)=O)ccc4C)nc(N(C)CC(C)C)n3)C2)cc1 (stereo not drawn) | < 1000
37 | Cc1ccc(C(N)=O)cc1Oc1nc(NCc2ccccn2)nc(N(C)CC(C)(C)C)n1 | < 30000
38 | Cc1ccc(C(N)=O)cc1Nc1nc(N[C@H]2CCN(S(C)(=O)=O)C2)nc(N(C)CC(C)C)n1 | < 1000
39 | Cc1ccc(C(N)=O)cc1Nc1nc(N[C@H]2CCN(C3CCC3)C2)nc(N(C)CC(C)C)n1 | < 1000
40 | CONC(=O)c1ccc(C)c(Nc2nc(N[C@H]3CCN(C)C3)nc(N(C)CC(C)(C)C)n2)c1 | < 1000
41 | OC(CNc1nc(Cl)nc(Nc2ccc3ncsc3c2)n1)c1ccccc1 (stereo not drawn) | < 10000
42 | CNC(=O)c1ccc(C)c(Nc2nc(NC3CNC3)nc(N(C)CC(C)(C)C)n2)c1 | < 1000
43 | Cc1ccc(C(N)=O)cc1Nc1nc(NCCc2ccc(O)cc2)nc(N[C@H]2CCNC2)n1 | < 1000
44 | Cc1ccc(C(N)=O)cc1Nc1nc(NC2CCCc3ccccc32)nc(N[C@@H]2CCNC2)n1 (stereo partly drawn) | < 1000

Row | SMILES | IC50 [nM]
45 | CONC(=O)c1ccc(F)c(Sc2nc(N[C@@H]3CCNC3)nc(N(C)CC(C)(C)C)n2)c1 | < 30000
46 | Cc1ccc(C(N)=O)cc1Nc1nc(N[C@H]2CCCC[C@H]2N)nc(N(C)CC(C)C)n1 | < 1000
47 | CNCCN(C)c1nc(NCc2ccc(F)cc2F)nc(Nc2ccc3ncsc3c2)n1 | < 10000
48 | CONC(=O)c1ccc(C)c(Sc2nc(N(C)CC(C)(C)C)nc(N3CCCN(C)CC3)n2)c1 | < 30000
49 | Cc1ccc(C(N)=O)cc1Nc1nc(N[C@H]2CCN(Cc3ccccc3)C2)nc(N(C)CC(C)(C)C)n1 | < 1000
50 | CNc1nc(Nc2ccc3ncsc3c2)nc(N[C@@H](C)C2CCCCC2)n1 | < 10000
51 | Cc1ccc(C(N)=O)cc1Nc1nc(NC2CCN(C)C2)nc(N(C)CC(C)C)n1 (stereo not drawn) | < 1000
52 | CNCCCN(C)c1nc(NC[C@@H]2CC[C@H]3C[C@@H]2C3(C)C)nc(Nc2ccc3ncsc3c2)n1 | < 10000
53 | Cc1ccc(C(N)=O)cc1Nc1nc(NC(C)C2CCCCC2)nc(N2CCNCC2)n1 (stereo not drawn) | < 1000
54 | Cc1ccc(C(N)=O)cc1Nc1nc(N[C@H]2CN[C@H](C)C2)nc(N(C)CC(C)(C)C)n1 | < 1000
55 | Cc1ccc(C(N)=O)cc1Nc1nc(N[C@H]2CCN(C)C2)nc(N(C)CC(C)(C)C)n1 | < 1000
56 | Cc1ccc(C(=O)NCC(F)(F)F)cc1Nc1nc(N[C@H]2CCNC2)nc(N(C)CC(C)(C)C)n1 | < 1000
57 | CONC(=O)c1ccc(C)c(Nc2nc(N(C)CC(C)(C)C)nc(N3CCCCC3)n2)c1 | < 1000
58 | Cc1ccc(C(N)=O)cc1Nc1nc(NC2CCCC2)nc(N[C@@H]2CCNC2)n1 | < 1000
59 | Cc1ccc(CN2CCC(Nc3nc(Nc4cc(C(N)=O)ccc4C)nc(N(C)CC(C)C)n3)C2)c(C)c1 (stereo not drawn) | < 1000
60 | CC(CCCCCCN(C)c1nc(NCC(C)c2ccccc2)nc(Nc2ccc3ncsc3c2)n1)C(N)=O (stereo not drawn) | < 10000
61 | NC(=O)C1CCN(c2nc(Nc3ccc4ncsc4c3)cc(NC3CCC3)n2)CC1 | < 10000
62 | CCCCNc1nc(Nc2cc(C(=O)NOC)ccc2C)nc(N(C)CC(C)(C)C)n1 | < 1000
63 | CONC(=O)c1ccc(C)c(Nc2cc(F)nc(N(C)CC(C)(C)C)n2)c1 | < 1000
64 | CCC(C)CNc1nc(Nc2cc(C(N)=O)ccc2C)nc(N[C@H]2CCNC2)n1 (stereo partly drawn) | < 1000

Next, values leading:

Row | IC50 [nM] | SMILES
65 | < 1000 | Cc1ccc(C(N)=O)cc1Nc1nc(N[C@@H]2CCN(C(C)CC(C)C)C2)nc(N(C)CC(C)C)n1 (stereo partly drawn)
66 | < 1000 | Cc1ccc(C(N)=O)cc1Nc1nc(NCCCn2ccnc2)nc(NC2CCCC2)n1
67 | < 1000 | CC(C)CN(C)c1nc(Nc2cc(C(N)=O)ccc2C(F)(F)F)nc(N[C@H]2CCNC2)n1
68 | < 1000 | CNC(=O)c1ccc(C)c(Nc2nc(NC3CCN(Cc4ccccc4)C3)nc(N(C)CC(C)C)n2)c1 (stereo not drawn)
69 | < 1000 | Cc1ccc(C(N)=O)cc1Nc1nc(N[C@H]2CCN(Cc3ccccc3)C2)nc(N(C)CC(C)C)n1
70 | < 1000 | CCONC(=O)c1ccc(C)c(Nc2nc(NC)nc(N(C)CC(C)(C)C)n2)c1
71 | < 1000 | CCN1C[C@@H](Nc2nc(Nc3cc(C(N)=O)ccc3C)nc(N(C)CC(C)(C)C)n2)C[C@H]1C
72 | < 1000 | Cc1ccc(C(N)=O)cc1Nc1nc(CC2CCCC2)nc(Nc2ccncc2)n1
73 | < 1000 | Cc1ccc(C(N)=O)cc1Nc1nc(N)nc(NC[C@@H]2CC[C@H]3C[C@@H]2C3(C)C)n1
74 | < 1000 | CONC(=O)c1ccc(C)c(Nc2nc(NCCCN3CCCC3)nc(N(C)CC(C)(C)C)n2)c1
75 | < 1000 | CONC(=O)c1ccc(C)c(Nc2nc(NCCNC(C)=O)nc(N(C)CC(C)(C)C)n2)c1
76 | < 1000 | CONC(=O)c1ccc(C)c(Nc2nc(Cl)nc(N(C)CC(C)(C)C)n2)c1
77 | < 1000 | Cc1ccc(C(N)=O)cc1Nc1nc(O)nc(N[C@H]2CCNC2)n1
78 | < 1000 | Cc1ccc(C(N)=O)cc1Nc1nc(NC2CCN(CCc3ccccc3)C2)nc(N(C)CC(C)C)n1 (stereo not drawn)
79 | < 1000 | Cc1ccc(C(N)=O)cc1Nc1nc(N[C@H]2CCNC2)nc(N(C)CC23CC4CC(CC(C4)C2)C3)n1
80 | < 1000 | CNC(=O)c1ccc(C)c(Nc2nc(NC[C@H]3CCCN3)nc(N(C)CC(C)(C)C)n2)c1
81 | < 1000 | C=CCN1CC[C@H](Nc2nc(Nc3cc(C(=O)NC(C)C)ccc3C)nc(N(C)CC3CCCC3)n2)C1
82 | < 1000 | Cc1ccc(C(N)=O)cc1Nc1nc(N[C@@H]2CCNC2)nc(N2CCc3ccccc3C2)n1
83 | < 1000 | COC[C@H]1C[C@@H](Nc2nc(Nc3cc(C(N)=O)ccc3C)nc(N(C)CC(C)(C)C)n2)CN1
84 | < 1000 | Cc1ccc(C(=O)Nc2cccc(F)c2)cc1Nc1nc(N[C@H]2CCNC2)nc(N(C)CC(C)(C)C)n1
85 | < 1000 | CCONC(=O)c1ccc(C)c(Nc2nc(N[C@@H]3CCNC3)nc(N(C)CC(C)C(F)(F)F)n2)c1 (stereo partly drawn)
86 | < 1000 | Cc1cc2c(cc1Cl)C(=O)N2c1nc(N[C@H]2CCNC2)nc(N(C)CC(C)(C)C)n1
87 | < 1000 | CONC(=O)c1ccc(C)c(Nc2nc(NCCc3ccccn3)nc(N(C)CC(C)(C)C)n2)c1
88 | < 1000 | CONC(=O)c1ccc(C)c(Nc2nc(N(C)CC(C)(C)C)nc(N3CCN(C)CC3)n2)c1
89 | < 1000 | CCCCNC(=O)c1ccc(C)c(Nc2nc(N[C@H]3CCNC3)nc(N(C)CC(C)(C)C)n2)c1
90 | < 1000 | CCC(C)(C)c1nc(Nc2cc(C(N)=O)ccc2C)nc(N[C@H]2CCNC2)n1
91 | < 1000 | Cc1ccc(C(N)=O)cc1Nc1nc(N[C@H]2CCN(C3CCCCC3)C2)nc(N(C)CC(C)C)n1
92 | < 1000 | Cc1ccc(C(N)=O)cc1Nc1nc(N[C@H]2CCNC2)nc(N(C)CC(C)C(F)(F)F)n1 (stereo partly drawn)
93 | < 1000 | CCONC(=O)c1ccc(C)c(Nc2nc(NC3CCS(=O)(=O)C3)nc(N(C)CC(C)(C)C)n2)c1 (stereo not drawn)
